Data taken from ChEMBL document CHEMBL1201862, “PubChem BioAssay data set” (2004).
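Results reflect a 48-hour exposure of cells in 96-well plates to compound at five concentrations. At the GI50, growth is halved.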 Calls of active or inactive are those of the source. Cut-off read from the data, not from the text of the source: active = GI50 up to about 1.1 µM and inactive = higher.

Tests used:
Assay in all cases: NCI anticancer screen, dose series, 48 h
UACC-62 = system: UACC-62
HCT-116 = system: HCT-116
HCT-15 = system: HCT-15
OVCAR-8 = system: OVCAR-8
MDA-MB-231 = system: MDA-MB-231
RPMI-8226 = system: RPMI-8226
COLO 205 = system: COLO 205
Malme-3M = system: Malme-3M
A498 = system: A498
SR = system: SR
T47D = system: T47D
LOX IMVI = system: LOX IMVI
HT-29 = system: HT-29
UO-31 = system: UO-31
SN12C = system: SN12C
SW-620 = system: SW-620
UACC-257 = system: UACC-257
SK-MEL-28 = system: SK-MEL-28
NCI-H522 = system: NCI-H522

Row | Structure (SMILES) | GI50 (UACC-62) | GI50 (HCT-116) | GI50 (HCT-15) | GI50 (OVCAR-8) | GI50 (MDA-MB-231) | GI50 (RPMI-8226) | GI50 (COLO 205) | GI50 (Malme-3M) | GI50 (A498) | GI50 (SR) | GI50 (T47D) | GI50 (LOX IMVI) | GI50 (HT-29) | GI50 (UO-31) | GI50 (SN12C) | GI50 (SW-620) | GI50 (UACC-257) | GI50 (SK-MEL-28) | GI50 (NCI-H522)
1 | Cc1cccc2c(N)c3cccc(C(=O)NCC[N+](C)(C)Cc4ccccc4[N+](=O)[O-])c3nc12 | 8.05 µM (inactive) | 5.92 µM (inactive) | > 20.3 µM | 5.89 µM (inactive) | 13.6 µM (inactive) | 4.84 µM (inactive) | 9.02 µM (inactive) | 6.76 µM (inactive) | 8.97 µM (inactive) | 0.258 µM (active) | 14.2 µM (inactive) | 26.2 µM (inactive) | 5.22 µM (inactive) | 13.4 µM (inactive) | 2.11 µM (inactive) | 7.6 µM (inactive) | 24.3 µM (inactive) | 29.7 µM (inactive) | 4.94 µM (inactive)
2 | Cn1c(=O)n2n(c1=O)Cc1cccc3cccc(c13)C2 | > 100 µM (inactive) | > 100 µM (inactive) | > 100 µM | > 100 µM (inactive) | > 100 µM (inactive) | > 100 µM (inactive) | > 100 µM (inactive) | > 100 µM (inactive) | > 100 µM (inactive) | > 100 µM (inactive) | > 100 µM (inactive) | > 100 µM (inactive) | > 100 µM (inactive) | 63.8 µM (inactive) | > 100 µM (inactive) | > 100 µM (inactive) | > 100 µM (inactive) | > 100 µM (inactive) | > 100 µM (inactive)
3 | CC1C2CC(CC2N)C1(C)C (centres undefined) | > 100 µM (inactive) | > 100 µM (inactive) | – | > 100 µM (inactive) | > 100 µM (inactive) | – | > 100 µM (inactive) | > 100 µM (inactive) | > 100 µM (inactive) | > 100 µM (inactive) | > 100 µM (inactive) | – | > 100 µM (inactive) | > 100 µM (inactive) | > 100 µM (inactive) | > 100 µM (inactive) | > 100 µM (inactive) | > 100 µM (inactive) | > 100 µM (inactive)
4 | CCC(=O)NC(Nc1cc(C)on1)(C(F)(F)F)C(F)(F)F | > 100 µM (inactive) | > 100 µM (inactive) | > 100 µM | > 100 µM (inactive) | > 100 µM (inactive) | > 100 µM (inactive) | – | > 100 µM (inactive) | > 100 µM (inactive) | > 100 µM (inactive) | > 100 µM (inactive) | > 100 µM (inactive) | > 100 µM (inactive) | 97.9 µM (inactive) | > 100 µM (inactive) | > 100 µM (inactive) | > 100 µM (inactive) | > 100 µM (inactive) | > 100 µM (inactive)
5 | C(=N\c1ccc2c(c1)Cc1ccccc1-2)/c1ccccn1 | 89.3 µM (inactive) | 30.5 µM (inactive) | 48.3 µM | > 100 µM (inactive) | 68.2 µM (inactive) | > 10 µM (inactive) | – | > 100 µM (inactive) | 44.3 µM (inactive) | 24.9 µM (inactive) | 59.4 µM (inactive) | 57.1 µM (inactive) | 63.1 µM (inactive) | > 100 µM (inactive) | 28.4 µM (inactive) | 44.6 µM (inactive) | 27.1 µM (inactive) | > 100 µM (inactive) | 26.7 µM (inactive)
6 | CS(=O)(=O)c1ccc(/N=C/C=C/Nc2ccc(S(C)(=O)=O)cc2)cc1 | > 100 µM (inactive) | > 100 µM (inactive) | > 100 µM | > 100 µM (inactive) | > 100 µM (inactive) | > 100 µM (inactive) | > 100 µM (inactive) | > 100 µM (inactive) | > 100 µM (inactive) | > 100 µM (inactive) | > 100 µM (inactive) | – | > 100 µM (inactive) | > 100 µM (inactive) | > 100 µM (inactive) | > 100 µM (inactive) | > 100 µM (inactive) | > 100 µM (inactive) | > 100 µM (inactive)
7 | C[C@H](Nc1nc(N)c(N=O)c(=O)n1C)C(=O)O | > 10 µM (inactive) | > 10 µM (inactive) | > 10 µM | > 10 µM (inactive) | > 10 µM (inactive) | > 10 µM (inactive) | > 10 µM (inactive) | > 10 µM (inactive) | > 10 µM (inactive) | > 10 µM (inactive) | > 10 µM (inactive) | > 10 µM (inactive) | > 10 µM (inactive) | – | > 10 µM (inactive) | > 10 µM (inactive) | > 10 µM (inactive) | > 10 µM (inactive) | > 10 µM (inactive)
8 | CC(=O)OCC1OC(n2c3c(cc(C#N)c2=S)CCCCCC3)C(OC(C)=O)C(OC(C)=O)C1OC(C)=O (centres undefined) | 54.7 µM (inactive) | 37.8 µM (inactive) | 97.5 µM | 69.8 µM (inactive) | > 100 µM (inactive) | 55.5 µM (inactive) | 84.1 µM (inactive) | > 100 µM (inactive) | > 100 µM (inactive) | 36.8 µM (inactive) | 5.2 µM (inactive) | 21.5 µM (inactive) | 41.2 µM (inactive) | > 100 µM (inactive) | > 100 µM (inactive) | – | > 100 µM (inactive) | > 100 µM (inactive) | 76.4 µM (inactive)
9 | O=C(NNc1ccccc1)c1ccc(Cl)c(Cl)c1 | 0.0667 µM (active) | 14 µM (inactive) | 15.5 µM | 21.2 µM (inactive) | 35.6 µM (inactive) | 0.603 µM (active) | 0.169 µM (active) | 18.6 µM (inactive) | 5.2 µM (inactive) | 20.3 µM (inactive) | 0.918 µM (active) | 0.0438 µM (active) | 15.7 µM (inactive) | 2.44 µM (inactive) | 27.9 µM (inactive) | 0.108 µM (active) | – | > 100 µM (inactive) | 0.574 µM (active)
10 | CCOC(=O)C1(Cc2ccccc2)Cc2cc3c(cc2C1=O)CCC3 (centres undefined) | > 100 µM (inactive) | > 100 µM (inactive) | > 100 µM | > 100 µM (inactive) | > 100 µM (inactive) | > 100 µM (inactive) | > 100 µM (inactive) | > 100 µM (inactive) | > 100 µM (inactive) | > 100 µM (inactive) | > 100 µM (inactive) | > 100 µM (inactive) | > 100 µM (inactive) | > 100 µM (inactive) | > 100 µM (inactive) | > 100 µM (inactive) | > 100 µM (inactive) | > 100 µM (inactive) | –
11 | c1ccc2nc3c(nc2c1)sc1nc2ccccc2n13 | > 100 µM (inactive) | > 100 µM (inactive) | > 100 µM | > 100 µM (inactive) | > 100 µM (inactive) | > 100 µM (inactive) | > 100 µM (inactive) | > 100 µM (inactive) | 26.1 µM (inactive) | > 100 µM (inactive) | 8 µM (inactive) | > 100 µM (inactive) | > 100 µM (inactive) | > 100 µM (inactive) | > 100 µM (inactive) | – | > 100 µM (inactive) | – | –
12 | COC(=O)c1c(O)ccc2[nH]c3c(O)c4ccccc4cc3c12 | 61.4 µM (inactive) | 16.7 µM (inactive) | 20.5 µM | 20.2 µM (inactive) | 75 µM (inactive) | 17.4 µM (inactive) | 18.3 µM (inactive) | 20.2 µM (inactive) | 41.4 µM (inactive) | 43.5 µM (inactive) | 15.1 µM (inactive) | – | 33.3 µM (inactive) | 26.8 µM (inactive) | 43.6 µM (inactive) | – | 34.1 µM (inactive) | 35 µM (inactive) | 32 µM (inactive)
13 | O=C(N/N=C\c1cccc2ccccc12)Nc1cccc2ccccc12 | – | 13.9 µM (inactive) | 5.73 µM | 32.4 µM (inactive) | 16 µM (inactive) | – | 16.9 µM (inactive) | 35.2 µM (inactive) | 15.7 µM (inactive) | 3.29 µM (inactive) | 65.9 µM (inactive) | 22.9 µM (inactive) | 4.17 µM (inactive) | 76.9 µM (inactive) | 41.9 µM (inactive) | 10.6 µM (inactive) | 27.3 µM (inactive) | 32.9 µM (inactive) | 18.6 µM (inactive)
14 | COC(=O)C1C2CCCN2OC1(C)CO (centres undefined) | > 100 µM (inactive) | > 100 µM (inactive) | > 100 µM | > 100 µM (inactive) | > 100 µM (inactive) | > 100 µM (inactive) | > 100 µM (inactive) | – | > 100 µM (inactive) | > 100 µM (inactive) | > 100 µM (inactive) | > 100 µM (inactive) | > 100 µM (inactive) | > 100 µM (inactive) | > 100 µM (inactive) | > 100 µM (inactive) | > 100 µM (inactive) | > 100 µM (inactive) | > 100 µM (inactive)
15 | O=C(O)Cc1ccc2nc(COC(=O)c3ccccc3)sc2c1 | > 100 µM (inactive) | 83.8 µM (inactive) | > 100 µM | > 100 µM (inactive) | > 100 µM (inactive) | > 100 µM (inactive) | > 100 µM (inactive) | > 100 µM (inactive) | > 100 µM (inactive) | > 100 µM (inactive) | > 100 µM (inactive) | > 100 µM (inactive) | – | > 100 µM (inactive) | > 100 µM (inactive) | > 100 µM (inactive) | > 100 µM (inactive) | > 100 µM (inactive) | > 100 µM (inactive)
16 | O=C(Nc1ccc(Cl)c(C(F)(F)F)c1)C(=O)c1c(O)c2ccccc2oc1=O | > 100 µM (inactive) | > 100 µM (inactive) | > 100 µM | > 100 µM (inactive) | > 100 µM (inactive) | > 100 µM (inactive) | – | > 100 µM (inactive) | > 100 µM (inactive) | > 100 µM (inactive) | > 100 µM (inactive) | > 100 µM (inactive) | > 100 µM (inactive) | > 100 µM (inactive) | > 100 µM (inactive) | > 100 µM (inactive) | > 100 µM (inactive) | > 100 µM (inactive) | > 100 µM (inactive)
